{"source": "paper PMC5049494", "about": "“Nitrotriazole-based acetamides and propanamides with broad spectrum antitrypanosomal activity” (European Journal of Medicinal Chemistry, 2016)", "key": {"[1]": {"system": "bloodstream form T.b. brucei recombinant parasites expressing wild type (-tet) or elevated (+tet) levels of TbNTR", "test": "microbe, parasite or virus in culture", "type": "cell-based", "conditions": "for IC50: Trypanosoma brucei; for Ratio –tet/+tet: ratio of IC50 values -tet/+tet", "quoted_text": "The BSF of T. brucei parasites were seeded at 1 × 10^3 mL^−1 in 200 μL of growth medium containing different concentrations of nitroheterocycle. Where appropriate, induction of the TbNTR was carried out by adding tetracycline (1 μg/mL). After incubation for 3 days at 37 °C, 20 μL of Alamar blue was added to each well and the plates incubated for a further 16 h. The cell density of each culture was determined as described before [20] and the IC50 established."}, "[2]": {"system": "bloodstream form T.b. brucei wild type", "test": "T. brucei antiproliferating assay, wild type", "type": "cell-based", "conditions": "Trypanosoma brucei, means from 4 experiments ± SD", "experimental": "The BSF of T. brucei parasites were seeded at 1 × 10^3 mL^−1 in 200 μL of growth medium containing different concentrations of nitroheterocycle. Where appropriate, induction of the TbNTR was carried out by adding tetracycline (1 μg/mL). After incubation for 3 days at 37 °C, 20 μL of Alamar blue was added to each well and the plates incubated for a further 16 h. The cell density of each culture was determined as described before and the IC50 established."}, "[3]": {"system": "T.b. rhodesiense, strain STIB 900 trypomastigotes", "test": "In vitro activity against T. b. rhodesiense", "type": "cell-based", "conditions": "for IC50: Trypanosoma brucei, read-out: T.b.r. IC50; for SI (T.b.r.): IC50 in L6 cells/IC50 in T.b. rhodesiense; for anti-HAT activity class (TDR criteria): T. b. rhodesiense; for fold more potent against T. b. rhodesiense than the corresponding acetamide: propanamide vs acetamide analog", "experimental": "(§1) Compounds in Table 1 were screened for anti-parasitic activity against three trypanosomatids: T. cruzi, T. b. rhodesiense and Leishmania donovani and compared with previously made analogs shown in orange and designated with a. […] In addition, compounds were tested for toxicity in L6 rat skeletal myoblasts, the host cells for T. cruzi amastigotes, in order to calculate a selectivity index for each parasite [SI = IC50L6/IC50parasite] (Table 1). The TDR (Special Programme for Research and Training in Tropical Diseases, World Health Organization) criteria were adopted to interpret antiparasitic activity and selectivity.\n(§2) In vitro activity against T. cruzi, T. b. rhodesiense, L. donovani and cytotoxicity assessment using L6 cells (rat skeletal myoblasts) was determined using a 96-well plate format as previously described. Data were analyzed with the graphic program Softmax Pro (Molecular Devices, Sunnyvale, CA, USA), which calculated IC50 values by linear regression from the sigmoidal dose inhibition curves."}, "[4]": {"system": "L. donovani axenic, strain MHOM-ET-67/L82 amastigotes", "test": "In vitro activity against L. donovani", "type": "cell-based", "conditions": "for SI (L.d.): IC50 in L6 cells/IC50 in L. donovani; for IC50: Leishmania donovani, L. donovani axenic amastigotes MHOM-ET-67/L82, means of 2 to 3 measurements, SD < 5%, read-out: L.d. IC50", "quoted_text": "(§3) The concentration of compound that inhibits parasite growth by 50% (IC50) was calculated from dose response curves for each parasite (Table 1). In addition, compounds were tested for toxicity in L6 rat skeletal myoblasts, the host cells for T. cruzi amastigotes, in order to calculate a selectivity index for each parasite [SI = IC50L6/IC50parasite]\n(§4) In vitro activity against T. cruzi, T. b. rhodesiense, L. donovani and cytotoxicity assessment using L6 cells (rat skeletal myoblasts) was determined using a 96-well plate format as previously described [37]. Data were analyzed with the graphic program Softmax Pro (Molecular Devices, Sunnyvale, CA, USA), which calculated IC50 values by linear regression from the sigmoidal dose inhibition curves."}, "[5]": {"system": "T. cruzi, strain Tulahuen C4 amastigotes", "test": "In vitro activity against T. cruzi", "type": "cell-based", "conditions": "for IC50: Trypanosoma cruzi, T. cruzi Tulahuen C4 amastigotes, means of 2 to 3 measurements, SD < 5%, read-out: T. c. IC50; for SI (T. c.): IC50 in L6 cells/IC50 in T. cruzi; for Bnz/comp: fold antichagasic potency relative to Bnz (T. cruzi IC50 ratio)", "quoted_text": "as §3, §4"}, "[6]": {"test": "Cytotoxicity in the host L6 cells", "type": "cell-based, rat", "conditions": "rat, L6 cells (rat skeletal myoblasts); cytotoxicity in host L6 cells; read-out: Cyt. L6 IC50", "experimental": "as §1, §2"}, "[7]": {"system": "transgenic T. cruzi parasites expressing firefly luciferase", "type": "in vivo, Balb/c mice", "experimental": "A fast luminescence assay was used in an acute infected murine model, in which transgenic T. cruzi parasites expressing firefly luciferase were injected in 5 week-old Balb/c mice. Mice were injected with D-luciferin before imaging. Groups of 5 mice/group were treated i.p. for 10 consecutive days with each compound, at 13 or 15 mg/kg/day. […] The mean ratio of parasite levels was calculated after 5 and 10 days of treatment.\nFor in vivo studies, a Brazilian strain trypomastigotes from transgenic T. cruzi parasites expressing firefly luciferase were used as described before. Briefly, parasites (10^5 trypomastigotes) were injected in 5 week-old Balb/c mice (Taconic) and three days later mice were anesthesized by inhalation of isofluorane, followed by an injection with 150 mg/kg of D-luciferin potassium-salt in PBS. Mice were imaged 5–10 min after injection of luciferin with an IVIS 100 (Xenogen, Alameda, CA) and the data acquisition and analysis were performed with the software LivingImage (Xenogen) as described before. Treatment with test compounds started 4 days post infection at 13 or 15 mg/kg/day × 10 days, given i.p. The vehicle control was 2% methylcellulose +0.5% Tween 80 and groups of 5 mice/group were used. Mice were imaged after 5 and 10 days of treatment. The ratio of parasite levels was calculated for each animal dividing the luciferase signal after treatment by the luciferase signal on the first imaging (before treatment). Mean values of all animals in each group ± SD were used for plotting."}, "[8]": {"system": "L. donovani axenic, strain MHOM-ET-67/L82 amastigotes", "set-up": "method as in PMID 26344593, PMID 25580906", "conditions": "previously evaluated compounds (orange, designated a); read-out: L.d. IC50; cited from earlier work"}, "[9]": {"system": "T. cruzi, strain Tulahuen C4 amastigotes", "conditions": "previously evaluated compounds (orange, designated a); read-out: T. c. IC50; cited from earlier work"}, "[10]": {"system": "T.b. rhodesiense, strain STIB 900 trypomastigotes", "set-up": "method as in PMID 26344593, PMID 25580906", "conditions": "cited from earlier work"}, "[11]": {"conditions": "read-out: IC50 value T.b. brucei TbNTR (+tet)"}, "[12]": {"conditions": "read-out: IC50 value T.b. brucei TbNTR (-tet)"}, "[13]": {"conditions": "T.b. rhodesiense STIB 900 trypomastigotes, means of 2 to 3 measurements, SD < 5%"}, "[14]": {"conditions": "read-out: IC50 value T.b. brucei Wild type, bloodstream form"}}, "note": "Read-outs that look alike come from different tables or passages of the source.", "data": [{"smiles": "CC1CS(=O)(=O)CCN1/N=C/c1ccc([N+](=O)[O-])o1", "note": "(stereo not shown) [nfx, Nifurtimox, reference compound]", "values": [{"measurement": "IC50", "setting": "[1]; [11]", "value": "869 ± 46", "unit": "nM"}, {"measurement": "IC50", "setting": "[1]; [12]", "value": "6360 ± 119", "unit": "nM"}, {"measurement": "Ratio –tet/+tet", "setting": "[1]", "value": 7.3}, {"measurement": "IC50", "setting": "[2]; bloodstream form, read-out: IC50 value T.b. brucei Wild type", "value": "3980 ± 150", "unit": "nM"}]}, {"smiles": "Nc1nc(N)nc(Nc2ccc([As]3SCC(CO)S3)cc2)n1", "note": "(stereo not shown) [Melars., Melarsoprol, reference compound]", "values": [{"measurement": "IC50", "setting": "[3]", "value": "9 ± 1", "unit": "nM"}]}, {"smiles": "CN(C(=O)Cn1ccnc1[N+](=O)[O-])c1ccc(C(F)(F)F)cc1", "note": "[Compound 3, N-methyl-2-(2-nitro-1H-imidazol-1-yl)-N-(4-(trifluoromethyl)phenyl)acetamide]", "values": [{"measurement": "SI (L.d.)", "setting": "[4]", "value": 3.96}, {"measurement": "IC50", "setting": "[4]", "value": 47700, "unit": "nM"}, {"measurement": "SI (T.b.r.)", "setting": "[3]", "value": 1.9}, {"measurement": "anti-HAT activity class (TDR criteria)", "setting": "[3]", "value": "inactive"}, {"measurement": "IC50", "setting": "[3]; [13]", "value": 97700, "unit": "nM"}, {"measurement": "antichagasic activity class (TDR criteria)", "setting": "[5]; T. cruzi", "value": "moderately active (IC50 between 4.0 and 60 μM)"}, {"measurement": "IC50", "setting": "[5]", "value": 49400, "unit": "nM"}, {"measurement": "melting point", "value": "45 to 47", "unit": "°C"}, {"measurement": "IC50", "setting": "[6]", "value": 189000, "unit": "nM"}]}, {"smiles": "O=C(CCn1cnc([N+](=O)[O-])n1)Nc1cc(-c2ccc(F)cc2)on1", "note": "[Compound 12, N-(5-(4-fluorophenyl)isoxazol-3-yl)-3-(3-nitro-1H-1,2,4-triazol-1-yl)propanamide]", "values": [{"measurement": "SI (L.d.)", "setting": "[4]", "value": ">37"}, {"measurement": "antileishmanial activity class (TDR criteria)", "setting": "[4]; L. donovani", "value": "inactive"}, {"measurement": "IC50", "setting": "[4]", "value": 7790, "unit": "nM"}, {"measurement": "IC50", "setting": "[1]; [11]", "value": 400, "unit": "nM"}, {"measurement": "IC50", "setting": "[1]; [12]", "value": "1610 ± 100", "unit": "nM"}, {"measurement": "Ratio –tet/+tet", "setting": "[1]", "value": 4.1}, {"measurement": "SI (T.b.r.)", "setting": "[3]", "value": ">201"}, {"measurement": "anti-HAT activity class (TDR criteria)", "setting": "[3]", "value": "moderately active (IC50 between 0.5 and 6.0 μM)"}, {"measurement": "IC50", "setting": "[3]; [13]", "value": 1440, "unit": "nM"}, {"measurement": "fold more potent against T. b. rhodesiense than the corresponding acetamide", "setting": "[3]", "value": 5.6, "unit": "fold"}, {"measurement": "SI (T. c.)", "setting": "[5]", "value": ">794"}, {"measurement": "IC50", "setting": "[5]", "value": 364, "unit": "nM"}, {"measurement": "Bnz/comp", "setting": "[5]", "value": 6}, {"measurement": "melting point", "value": "215 °C (dec.)"}, {"measurement": "IC50", "setting": "[2]; [14]", "value": "760 ± 100", "unit": "nM"}, {"measurement": "IC50", "setting": "[6]", "value": "> 289000", "unit": "nM"}]}, {"smiles": "O=C(Cn1ccnc1[N+](=O)[O-])NCc1ccccc1", "note": "[Bnz, Benznidazole, reference compound]", "values": [{"measurement": "parasite load after 10 days of treatment", "setting": "[7]; 15 mg/kg/day i.p. x 10 days, acute murine model, p < 0.0001", "value": "undetectable levels"}, {"measurement": "parasitic level after 5-day treatment", "setting": "[7]; 15 mg/kg/day i.p., compared to untreated control", "value": "Statistically significant reduction in parasitic level"}]}, {"smiles": "O=C(Cn1cnc([N+](=O)[O-])n1)NCc1ccc(C(F)(F)F)cc1", "note": "[Compound 2a]", "values": [{"measurement": "IC50", "setting": "[8]", "value": 10400, "unit": "nM"}, {"measurement": "fold more potent against T. b. rhodesiense than 2", "setting": "[3]; compared with N-methyl acetamide 2", "value": 5.8, "unit": "fold"}, {"measurement": "IC50", "setting": "[9]", "value": 970, "unit": "nM"}, {"measurement": "anti-HAT activity class (TDR criteria)", "setting": "[10]; T. b. rhodesiense, previously evaluated acetamides", "value": "inactive"}, {"measurement": "IC50", "setting": "[10]; previously evaluated compounds (orange, designated a), read-out: T.b.r. IC50", "value": 6470, "unit": "nM"}]}, {"smiles": "O=C(CCn1cnc([N+](=O)[O-])n1)Nc1ccc(Oc2ccccc2)cc1", "note": "[Compound 8, 3-(3-Nitro-1H-1,2,4-triazol-1-yl)-N-(4-phenoxyphenyl)propanamide]", "values": [{"measurement": "IC50", "setting": "[4]", "value": 2330, "unit": "nM"}, {"measurement": "IC50", "setting": "[1]; [11]", "value": "410 ± 10", "unit": "nM"}, {"measurement": "IC50", "setting": "[1]; [12]", "value": "1470 ± 30", "unit": "nM"}, {"measurement": "SI (T.b.r.)", "setting": "[3]", "value": 203}, {"measurement": "IC50", "setting": "[3]; [13]", "value": 156, "unit": "nM"}, {"measurement": "fold more potent against T. b. rhodesiense than the corresponding acetamide", "setting": "[3]", "value": 17.4, "unit": "fold"}, {"measurement": "SI (T. c.)", "setting": "[5]", "value": 398}, {"measurement": "IC50", "setting": "[5]", "value": 79, "unit": "nM"}, {"measurement": "Bnz/comp", "setting": "[5]", "value": 28}, {"measurement": "melting point", "value": "108 to 110", "unit": "°C"}, {"measurement": "IC50", "setting": "[2]; [14]", "value": "140 ± 10", "unit": "nM"}, {"measurement": "IC50", "setting": "[6]", "value": 31600, "unit": "nM"}]}]}
